According to publication PMC4501006, “Preliminary Characterization and In Vivo Studies of Structurally Identical ^18F- and ^125I-Labeled Benzyloxybenzenes for PET/SPECT Imaging of β-Amyloid Plaques” (Scientific Reports, 2015):
Where “and” joins values, the source holds several entries; their conditions need not be identical. Equal entries are not always repeated.

How the values were obtained:
[1] = Partition coefficient determination (log D); type: physicochemical
Experimental: An ideal Aβ imaging probe would combine a high binding affinity to Aβ plaques and excellent pharmacokinetics with high initial brain uptake and rapid washout from normal brain regions. Thus, the partition coefficients of these four radiolabeled ligands were determined to estimate their ability to penetrate the BBB.

[2] = In vivo biodistribution in normal ICR mice; settings: i.v.
Experimental: Histograms of brain and intestine uptake were presented in Fig. 6 for comparison, while detailed data concerning the in vivo biodistribution in normal ICR mice were collected in Table S3 in Supplementary information. […] [^125I]7a and [^125I]12a were rapidly cleared from the normal brain, with only small amounts of radioactivity remaining at 60 min post-injection (0.55% ID/g for [^125I]7a and 0.37% ID/g for [^125I]12a). […] In addition, no significant deiodination was observed (less than 0.5% ID in the thyroid at 60 min).
As the specific activity of ^18F-labeled ligands (about 60 GBq/μmol) was slightly lower than that of corresponding no-carrier-added ^125I-labeled ligands (81 GBq/μmol), the impact of specific activity on pharmacokinetics was studied. In vivo biodistribution of radioactivity after injection of carrier-added [^125I]7a with equal specific activity to corresponding [^18F]7a (60 GBq/μmol) was conducted in normal ICR mice through the same procedure.
A structural model of an Aβ fiber (PDB ID: 2LMO) derived from solid state NMR was downloaded from the RCSB Protein Data Bank (www.rcsb.org/pdb). Geometric optimization was performed using Gaussian 09 at the B3LYP/6–31 G and 3-21G levels in the water phase. Molecular docking was performed using AutoDock4.0, and the docking results were graphed with VMD 1.9.1 software. SYBYL-X 1.1 software was used to predict the binding affinities with previously constructed 3D-QSAR models. All reagents for chemical synthesis were used as purchased without further purification. [^125I]NaI was purchased from PerkinElmer and ^18F^– was kindly provided by the Chinese PLA General Hospital. ^1H and ^13C NMR spectra were recorded on a Bruker Avance III NMR spectrometer (400 MHz for ^1H; 101 MHz for ^13C) in CDCl3 or DMSO-d6 solutions at room temperature. Mass spectra were acquired with a GCT CA127 Micronass UK instrument. X-ray crystallographic data of compound 12a were collected on a Bruker Smart APEX II diffractometer (Bruker Co., Germany) and deposited at the Cambridge Crystallographic Data Centre as supplementary publication (no. CCDC 1063679). HPLC analysis was performed on a Shimadzu SCL-20 AVP equipped with a Bioscan Flow Count 3200 NaI/PMT γ-radiation scintillation detector and a SPD-20A UV detector, λ = 254 nm. A Venusil MP C18 reverse phase column (Agela Technologies, 5 μm, 4.6 × 250 mm) was used for separations and purity determinations with a binary gradient system (acetonitrile: water = 80%: 20%) at a 1.0 mL/min flow rate. Fluorescent observation was performed on the Axio Observer Z1 inverted fluorescence microscope (Zeiss, Germany) equipped with a DAPI filter set (excitation, 405 nm). Post-mortem brain sections from an autopsy-confirmed AD subject and a control subject were acquired from the Chinese Brain Bank. Transgenic mice (APPswe/PSEN1, male) and wild-type mice (C57BL6, male) were purchased from the Institute of Laboratory Animal Science, Chinese Academy of Medical Sciences. Normal ICR mice (20–22 g, male) were used for in vivo biodistribution, dynamic PET/CT and SPECT/CT scans, and biostability experiments. All experiments on mice were performed in accordance with the guidelines approved by the animal care committee of Beijing Normal University and Xiamen University.

[3] = molecular target: Aβ plaques (Homo sapiens, UniProt P05067); experiment: In vitro autoradiography on AD human brain sections; type: binding
Chain of Aβ plaques (P05067 672-711 limits assumed): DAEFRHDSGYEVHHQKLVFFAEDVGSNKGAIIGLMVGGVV
Source text: Figure 5 In vitro autoradiography of [^125I]7a (a–d), [^18F]7a (e–h), [^125I]12a (i–l) and [^18F]12a (m–p).

[4] = carrier-added, SA ≈ 60 GBq/μmol, 2 min
[5] = carrier-added, SA ≈ 60 GBq/μmol, 10 min
[6] = carrier-added, SA ≈ 60 GBq/μmol, 30 min
[7] = carrier-added, SA ≈ 60 GBq/μmol, 60 min

logD [1]: 3.96 ± 0.22
Biodistribution of radioactivity, blood [2, 4]: 3.30 ± 0.43 % injected dose per gram
Biodistribution of radioactivity, brain [2, 4]: 5.39 % injected dose per gram
Biodistribution of radioactivity, heart [2, 4]: 7.34 ± 0.69 % injected dose per gram
Biodistribution of radioactivity, intestine [2, 4]: 4.57 ± 0.96 % injected dose per organ
Biodistribution of radioactivity, kidney [2, 4]: 9.80 ± 1.05 % injected dose per gram
Biodistribution of radioactivity, liver [2, 4]: 12.12 ± 2.01 % injected dose per gram
Biodistribution of radioactivity, lung [2, 4]: 7.77 ± 0.18 % injected dose per gram
Biodistribution of radioactivity, muscle [2, 4]: 3.37 ± 0.50 % injected dose per gram
Biodistribution of radioactivity, pancreas [2, 4]: 6.79 ± 1.53 % injected dose per gram
Biodistribution of radioactivity, spleen [2, 4]: 3.63 ± 0.83 % injected dose per gram
Biodistribution of radioactivity, stomach [2, 4]: 1.15 ± 0.21 % injected dose per organ
Biodistribution of radioactivity, thyroid [2, 4]: 0.12 ± 0.03 % injected dose per organ
Biodistribution of radioactivity, brain ([2]; carrier-added, SA ≈ 60 GBq/μmol, 2 min, listed as [125I]7a): 5.39 ± 0.36 % injected dose per gram
Biodistribution of radioactivity, blood [2, 5]: 2.31 ± 0.22 % injected dose per gram
Biodistribution of radioactivity, brain [2, 5]: 3.51 ± 0.36 % injected dose per gram
Biodistribution of radioactivity, heart [2, 5]: 2.32 ± 0.15 % injected dose per gram
Biodistribution of radioactivity, intestine [2, 5]: 8.51 ± 0.48 % injected dose per organ
Biodistribution of radioactivity, kidney [2, 5]: 10.01 ± 1.43 % injected dose per gram
Biodistribution of radioactivity, liver [2, 5]: 11.30 ± 0.58 % injected dose per gram
Biodistribution of radioactivity, lung [2, 5]: 6.50 ± 0.69 % injected dose per gram
Biodistribution of radioactivity, muscle [2, 5]: 1.42 ± 0.20 % injected dose per gram
Biodistribution of radioactivity, pancreas [2, 5]: 2.79 ± 0.35 % injected dose per gram
Biodistribution of radioactivity, spleen [2, 5]: 1.53 ± 0.23 % injected dose per gram
Biodistribution of radioactivity, stomach [2, 5]: 0.74 ± 0.09 % injected dose per organ
Biodistribution of radioactivity, thyroid [2, 5]: 0.11 ± 0.01 % injected dose per organ
Biodistribution of radioactivity, blood [2, 6]: 1.39 ± 0.15 % injected dose per gram
Biodistribution of radioactivity, brain [2, 6]: 0.97 ± 0.11 % injected dose per gram
Biodistribution of radioactivity, heart [2, 6]: 0.96 ± 0.13 % injected dose per gram
Biodistribution of radioactivity, intestine [2, 6]: 18.87 ± 2.27 % injected dose per organ
Biodistribution of radioactivity, kidney [2, 6]: 6.25 ± 1.23 % injected dose per gram
Biodistribution of radioactivity, liver [2, 6]: 6.29 ± 0.22 % injected dose per gram
Biodistribution of radioactivity, lung [2, 6]: 4.30 ± 0.58 % injected dose per gram
Biodistribution of radioactivity, muscle [2, 6]: 0.95 ± 0.08 % injected dose per gram
Biodistribution of radioactivity, pancreas [2, 6]: 1.06 ± 0.16 % injected dose per gram
Biodistribution of radioactivity, spleen [2, 6]: 0.62 ± 0.03 % injected dose per gram
Biodistribution of radioactivity, stomach [2, 6]: 1.67 ± 0.33 % injected dose per organ
Biodistribution of radioactivity, thyroid [2, 6]: 0.12 ± 0.04 % injected dose per organ
Biodistribution of radioactivity, blood [2, 7]: 0.83 ± 0.06 % injected dose per gram
Biodistribution of radioactivity, brain [2, 7]: 0.37 % injected dose per gram
Biodistribution of radioactivity, heart [2, 7]: 0.55 ± 0.10 % injected dose per gram
Biodistribution of radioactivity, intestine [2, 7]: 25.30 ± 3.94 % injected dose per organ
Biodistribution of radioactivity, kidney [2, 7]: 3.40 ± 0.48 % injected dose per gram
Biodistribution of radioactivity, liver [2, 7]: 3.31 ± 0.37 % injected dose per gram
Biodistribution of radioactivity, lung [2, 7]: 1.91 ± 0.29 % injected dose per gram
Biodistribution of radioactivity, muscle [2, 7]: 0.72 ± 0.20 % injected dose per gram
Biodistribution of radioactivity, pancreas [2, 7]: 0.57 ± 0.05 % injected dose per gram
Biodistribution of radioactivity, spleen [2, 7]: 0.36 ± 0.03 % injected dose per gram
Biodistribution of radioactivity, stomach [2, 7]: 1.04 ± 0.30 % injected dose per organ
Biodistribution of radioactivity, thyroid [2, 7]: 0.22 ± 0.05 % injected dose per organ
Biodistribution of radioactivity, brain ([2]; carrier-added, SA ≈ 60 GBq/μmol, 60 min, listed as [125I]7a): 0.37 ± 0.05 % injected dose per gram
brain2 min/brain60 min ratio [2]: 12.8
Biodistribution of radioactivity, blood ([2]; 2 min): 5.03 ± 0.20 % injected dose per gram
Biodistribution of radioactivity, heart ([2]; 2 min): 9.70 ± 2.25 % injected dose per gram
Biodistribution of radioactivity, intestine ([2]; 2 min): 6.46 ± 0.79 % injected dose per organ
Biodistribution of radioactivity, kidney ([2]; 2 min): 12.03 ± 1.20 % injected dose per gram
Biodistribution of radioactivity, liver ([2]; 2 min): 22.45 ± 3.88 % injected dose per gram
Biodistribution of radioactivity, lung ([2]; 2 min): 10.78 ± 2.33 % injected dose per gram
Biodistribution of radioactivity, muscle ([2]; 2 min): 3.72 ± 0.51 % injected dose per gram
Biodistribution of radioactivity, pancreas ([2]; 2 min): 8.15 ± 1.09 % injected dose per gram
Biodistribution of radioactivity, spleen ([2]; 2 min): 3.86 ± 0.21 % injected dose per gram
Biodistribution of radioactivity, stomach ([2]; 2 min): 1.32 ± 0.21 % injected dose per organ
Biodistribution of radioactivity, thyroid ([2]; 2 min): 0.12 ± 0.02 % injected dose per organ
Biodistribution of radioactivity, brain ([2]; 2 min, listed as [125I]7a): 7.04 ± 0.89 % injected dose per gram
Biodistribution of radioactivity, blood ([2]; 10 min): 3.03 ± 0.48 % injected dose per gram
Biodistribution of radioactivity, brain ([2]; 10 min): 2.73 ± 0.25 % injected dose per gram
Biodistribution of radioactivity, heart ([2]; 10 min): 2.01 ± 0.14 % injected dose per gram
Biodistribution of radioactivity, intestine ([2]; 10 min): 17.21 ± 2.33 % injected dose per organ
Biodistribution of radioactivity, kidney ([2]; 10 min): 9.53 ± 1.58 % injected dose per gram
Biodistribution of radioactivity, liver ([2]; 10 min): 14.43 ± 2.37 % injected dose per gram
Biodistribution of radioactivity, lung ([2]; 10 min): 7.44 ± 1.59 % injected dose per gram
Biodistribution of radioactivity, muscle ([2]; 10 min): 1.28 ± 0.11 % injected dose per gram
Biodistribution of radioactivity, pancreas ([2]; 10 min): 2.07 ± 0.30 % injected dose per gram
Biodistribution of radioactivity, spleen ([2]; 10 min): 1.32 ± 0.13 % injected dose per gram
Biodistribution of radioactivity, stomach ([2]; 10 min): 1.08 ± 0.24 % injected dose per organ
Biodistribution of radioactivity, thyroid ([2]; 10 min): 0.09 ± 0.02 % injected dose per organ
Biodistribution of radioactivity, blood ([2]; 30 min): 2.17 ± 0.31 % injected dose per gram
Biodistribution of radioactivity, brain ([2]; 30 min): 1.05 ± 0.22 % injected dose per gram
Biodistribution of radioactivity, heart ([2]; 30 min): 1.65 ± 0.43 % injected dose per gram
Biodistribution of radioactivity, intestine ([2]; 30 min): 19.88 ± 4.22 % injected dose per organ
Biodistribution of radioactivity, kidney ([2]; 30 min): 6.71 ± 0.78 % injected dose per gram
Biodistribution of radioactivity, liver ([2]; 30 min): 12.35 ± 2.83 % injected dose per gram
Biodistribution of radioactivity, lung ([2]; 30 min): 4.25 ± 0.41 % injected dose per gram
Biodistribution of radioactivity, muscle ([2]; 30 min): 1.29 ± 0.31 % injected dose per gram
Biodistribution of radioactivity, pancreas ([2]; 30 min): 2.61 ± 0.59 % injected dose per gram
Biodistribution of radioactivity, spleen ([2]; 30 min): 1.26 ± 0.20 % injected dose per gram
Biodistribution of radioactivity, stomach ([2]; 30 min): 4.38 ± 1.00 % injected dose per organ
Biodistribution of radioactivity, thyroid ([2]; 30 min): 0.12 ± 0.01 % injected dose per organ
Biodistribution of radioactivity, blood ([2]; 60 min): 1.96 ± 0.31 % injected dose per gram
Biodistribution of radioactivity, brain ([2]; 60 min): 0.55 % injected dose per gram
Biodistribution of radioactivity, heart ([2]; 60 min): 1.00 ± 0.18 % injected dose per gram
Biodistribution of radioactivity, intestine ([2]; 60 min): 20.21 ± 7.78 % injected dose per organ
Biodistribution of radioactivity, kidney ([2]; 60 min): 6.56 ± 1.10 % injected dose per gram
Biodistribution of radioactivity, liver ([2]; 60 min): 5.15 ± 1.09 % injected dose per gram
Biodistribution of radioactivity, lung ([2]; 60 min): 4.04 ± 1.63 % injected dose per gram
Biodistribution of radioactivity, muscle ([2]; 60 min): 1.36 ± 0.25 % injected dose per gram
Biodistribution of radioactivity, pancreas ([2]; 60 min): 1.97 ± 0.48 % injected dose per gram
Biodistribution of radioactivity, spleen ([2]; 60 min): 1.14 ± 0.56 % injected dose per gram
Biodistribution of radioactivity, stomach ([2]; 60 min): 2.44 ± 0.97 % injected dose per organ
Biodistribution of radioactivity, thyroid ([2]; 60 min): 0.16 ± 0.03 % injected dose per organ
Biodistribution of radioactivity, brain ([2]; 60 min, listed as [125I]7a): 0.55 ± 0.11 % injected dose per gram
in vitro autoradiography, plaque labeling [3]: specifically label Aβ deposits
Structure (SMILES): FCCOc1ccc(OCc2ccc([125I])cc2)cc1 [[^125I]7a]
Biodistribution of radioactivity, brain ([2]; 2 min): > 5 % injected dose per gram and 7.04 % injected dose per gram
